Where “and” joins values, the source holds several entries; their conditions need not be identical. Identical values can stand only once. Entries after “also recorded” stand apart in the source; their conditions may differ.
Tests used:
[1] = test system: esophageal tissue in a healthy swine in vivo esophagus; assay: Crosslink healthy in vivo esophagus at two power levels (delivery, soak, balloon dilatation, light activation); set-up: species or system Yorkshire Cross swine
From the text: More specifically, this study evaluated the logistics for esophageal placement of compound I(a) with the use of contrast media, the crosslinking effects of compound I(a), and acute retention of dilation in an in vivo swine model.
An Olympus GIF-140 Endoscope was used in this study. Fluoroscopy was utilized throughout the procedures for confirmation of equipment placement, sample delivery, and removal.
A 60-65 kg Yorkshire Cross (18P118) was used to establish the logistical techniques of the procedure. The animal was fasted for 24 hours prior to the procedure commencing. Post anesthesia swine 18P118 was positioned supinely (on its back) with the surgical table flat. A lavage was performed to flush any remaining contents from the esophagus and stomach. The endoscope was lubricated with a dime size amount of water based Astroglide and inserted into the mouth, passed by the epiglottis, around the pharyngeal diverticulum, through the esophagus and into the stomach. At insertion, the esophagus was partially open, (<5 mm diameter) circular and smooth. The esophagus formed around the catheter and the endoscope inserted instruments, ranging from 4 mm to 12.74 mm in diameter. The endoscope incremental measurements were used to determine the endoscope placement from the front incisor (zero reference point) to the lower esophageal sphincter (71 cm) with the designated working area being between 30 and 60 cm. The endoscope was maintained in the esophagus for the entire procedure.
Using the endoscope, the Edwards Fogarty occlusion catheter and the Vista Brite tip guide catheter were guided down the esophagus and positioned at the 45 cm mark. Positioning them simultaneously, then holding during inflation prevented slippage of the catheters during balloon inflation. The mucosa is loosely attached to the muscularis; the movement of any device in contact with the mucosa influenced the positioning of all inserted devices. […]
Once the volume required to fill the treatment zone was determined the contrast medium was removed. […]

[2] = test system: esophageal strictures generated by endoscopic mucosal resection (EMR); assay: Esophageal stricture (endoscopic mucosal resection) formation and treatment with compound I(a) plus PTA with light in minipigs; format: in vivo, Yucatan minipigs
From the text: Five healthy Yucatan minipigs (20-28 kg) were enrolled in the study. For the EMR procedure, each animal was monitored and maintained under anesthesia throughout the duration of the procedure. Each animal was placed in a supine position and elevated to a 5-12 degrees reverse Trendelenburg position, to aid in keeping gastric fluids from coming into the EMR procedural area. A water base lubricant (Astroglide) was used to aid at every insertion of the endoscope.
The upper GI was intubated and surveyed for abnormalities and gastric fluid content via a GIF-XQ140 endoscope. Of the five animals, three animals underwent lavage to remove excess fluid and debris from the esophagus and gastric lumen by washing with saline and suctioning out fluid/debris. A fluoroscopic esophagogram was taken of the target area with the endoscope in place (FIG. 1). The distal tip was measured with a calibrated digital caliper and the measurement was used to calibrate the fluoroscopic measurement tool. […] All representative fluoroscopic and endoscopic imagery are from animal 19P39 unless otherwise stated.
The scope tip was positioned within ±3 cm of the target site. Suction was applied through the gastroscope to visualize the esophageal mucosa at the distal attachment (DA) and to visualize the injection range to capture approximately three-fourths of the esophageal lumen at the target site. The needle from the disposable EMR kit was inserted through the endoscope biopsy channel and into the endoscope field of view (FIG. 2A). The injector slider was pushed until it clicked into position to extend the needle from the sheath. A 10 mL syringe with saline was connected to the injector port. Suction was applied and the injector needle advanced to pierce the target mucosa and to inject a bolus of saline (FIG. 2B). The target area was injected with 0.5 mL to 2.0 mL of saline multiple times to reach a coverage of approximately three-fourths circumference of the target area. Following injections suction was released, and the needle withdrawn from the biopsy channel for insertion of the snare.
The snare was used to remove the blistered mucosal tissue from the treated area. The snare was retracted and inserted into the biopsy channel and advanced into the field of view with the distal sheath. The snare was connected to the electrosurgical unit (Olympus PSD-20). The electrosurgical unit has two settings, one setting is CUT, which is used to cut the tissue and the other setting is COAG, which is used to cauterize the tissue. The snare loop tip was slowly extended approximately 5-10 mm beyond the DA, and CUT was activated marking the base of the tissue bolus by cauterizing the mucosa (FIG. 3A). Suction was used to draw the tissue bolus partially into the DA, and CUT was activated to separate the target mucosa from the submucosa/muscularis. The snare loop was also used as a lasso to remove the partially resected mucosa by cinching the snare closed around the resection (FIG. 3B) and activating the CUT pedal and COAG pedal as needed. The tissue that was not easily removed with the snare was removed with a coagrasper (FIG. 3C). The natural contraction movements of the esophagus posed some difficulty with maintaining a perfect depth to only exposing the submucosal tissue and to maintaining a consistent resection length throughout the resected area. For some animals there were portions of muscularis tissue exposed and some spiraling to the resected area due to the esophageal contractions (FIG. 4). Following the EMR a post procedural fluoroscopic esophagogram (FIG. 5) was taken and the animal recovered from anesthesia.
The EMR in the target area span approximately 270 degrees circumference and less than 2 cm wide.
On Day 21, post stricture induction, animals underwent anesthesia for evaluation of stricture formation and for stricture treatment. No lavage was needed to the esophagus or gastric lumen to complete the treatment on any of the animals. […]

[3] = test system: ex-vivo healthy swine arterial tissue; assay: Fluorescence microscopy of ex-vivo arterial tissue cross-sections after delivery of 10-8-10 Dimer; format: in vitro ADME; settings: 2 mg/mL for five minutes, 60x fluorescence microscopy
Method: FIGS. 32A and B are fluorescence microscopy images of ex-vivo healthy swine arterial tissue cross-section delivered with 2 mg/mL 10-8-10 Dimer for five minutes; wherein (A) is a fluorescence image at 60× magnification and (B) is at 60× magnification with fluorescence and greyscale overlay. FIGS. 32A and B are 60× fluorescence microscopy images of ex-vivo healthy swine arterial tissue cross-sections treated with 2 mg/mL 10-8-10 Dimer for five minutes; wherein (A) is a fluorescence image and (B) is a fluorescence and greyscale overlay.

[4] = test system: ex-vivo healthy swine esophageal tissue; assay: Fluorescence microscopy of ex-vivo esophageal tissue cross-section after delivery of 10-8-10 Dimer; format: in vitro ADME
Method: FIGS. 34A and B are fluorescence microscopy images of ex-vivo healthy swine esophageal tissue cross-section delivered with 4 mg/mL 10-8-10 Dimer for five minutes; wherein (A) is a fluorescence image at 4× magnification, and (B) is at 4× magnification with the fluorescence and greyscale overlay). FIGS. 34A and B are 4× fluorescence microscopy images of ex-vivo healthy swine esophageal tissue cross-section treated with 4 mg/mL 10-8-10 Dimer for five minutes; wherein (A) is a fluorescence image, and (B) is the fluorescence and greyscale overlay. As shown therein, The penetration of 10-8-10 Dimer into ex-vivo esophageal tissue is also vastly different from arterial tissue penetration. […] Treatment with 2 mg/ml of 10-8-10 Dimer was ineffective. In contrast to the treatment of arterial tissue, the 10-8-10 Dimer was efficacious at a concentration 100% greater.

[5] = Study Day 21, fluoroscopic, PTA + compound I(a) w/light, one row per animal
[6] = Study Day 49 necropsy, cross-section of esophagus, compound I(a) + PTA w/ light, one row per animal
[7] = 4 mg/mL for five minutes, 4x fluorescence microscopy

NCCOCCOCCNc1ccc2c3c(cccc13)C(=O)N(CCOCCOCCN1C(=O)c3cccc4c(NCCOCCOCCN)ccc(c34)C1=O)C2=O [compound I(a)]
crosslinking of the esophageal tissue (esophagus open at treated sites) ([1]; 10 mg/mL, 10 min soak, balloon dilatation, laser 74 mW/cm2 (site A) or 32 mW/cm2 (sites B, C) for 2 minutes): indications of potential crosslinking were seen at multiple sites; also recorded: opening at sites A, B and C indicate a crosslinking of the esophageal tissue
penetration of esophageal tissue (yellow coloration of the tissue) ([1]; 8 mL of compound I(a) 10 mg/mL in PBS, 10 minutes soak, treatment sites A, B, C, endoscopic observation): penetration was observed; also recorded: yellow coloration of the tissue is indicative of compound I(a) penetration; also recorded: yellow coloration of the esophagus confirmed delivery
irritation of the esophagus on endoscopy or necropsy examination ([1]; post treatment, entire length of the esophagus, slight irritation at site C attributed to TAPAS catheter): No significant irritation
penetration at stricture site (yellow coloration of the esophagus) ([2]; 10 mg/ml in PBS, 10 minutes soak, Day 21): Yellow coloration of the esophagus was observed indicating penetration
abnormalities of the entire esophagus via endoscope imaging ([2]; Day 21 post treatment, compound I(a) plus PTA balloon with light animals, other than the stricture area): no abnormalities were seen
re-epithelialization (pathology report) ([2]; Day 49 microscopic evaluation, compound I(a) plus PTA balloon with light): complete
Diameter of Stricture (mm) 0 min. post TX ([2]; Study Day 21, fluoroscopic, PTA + compound I(a) (10 mg/ml in PBS, 10 min soak) w/light 74 mW/cm2, one row per animal): 15.88 mm and 13.0 mm and 12.4 mm
Diameter of Stricture (mm) 30 min. post TX [2, 5]: 17.13 mm and 7.5 mm and 14.8 mm
Diameter of Stricture (mm) 60 min. post TX [2, 5]: 13.8 mm and 8.5 mm and 10.9 mm
Length of Stricture (mm) Endoscopic scan post TX ([2]; Study Day 21, post treatment, PTA + compound I(a) w/light, one row per animal): 30 mm (2×) and 17 mm
Length of Stricture (mm) Fluoroscopic ([2]; Study Day 49 (four weeks post treatment), compound I(a) + PTA w/light, one row per animal): 12.6 mm (2×) and 12.8 mm
Stricture Length [2, 6]: 3-11 millimeters and 5 millimeters and 25 millimeters
Stricture Width [2, 6]: 12 millimeters and 10 millimeters and 7 millimeters
Diameter of Stricture Post TX ([2]; Table 3, Study Day 49 (four weeks post treatment), fluoroscopic, compound I(a) + PTA w/light, one row per animal): 4.9 mm and 6.0 mm and 7.4 mm
Diameter of Stricture Post TX ([2]; Table 10, post treatment, 29 days apart, compound I(a) + PTA w/light, one row per animal, in mm): 6.0 and 7.4 and 4.9
percent gain at the stricture site post-treatment ([2]; all compound I(a) plus PTA balloon with light treated animals, Table 10): increase in percent gain
% Stricture Diameter Change Before and Post Treatment ([2]; before and post treatment 29 days apart, compound I(a) + PTA w/light, one row per animal): 22.4% and 94.7% and 169%
restoring the esophagus to a healthier diameter and movement ([2]; compound I(a) plus PTA balloon with light, in comparison with PTA balloon only treatment (19P38)): better success
retention of dilation ([2]; four weeks after treatment with compound I(a) crosslinking): demonstrated retention of dilation
penetration into arterial tissue (fluorescence) [3]: penetrated through the arterial intima and into the media
treatment of esophageal tissue at 2 mg/ml ([4]; 2 mg/ml): ineffective
fluorescence in the submucosa or muscularis [4, 7]: no significant fluorescence
location of 10-8-10 Dimer fluorescence in esophageal tissue [4, 7]: preponderance of 10-8-10 Dimer fluorescence is in the epithelium
treatment of esophageal tissue at higher concentration ([4]; concentration 100% greater than for arterial tissue (4 mg/mL vs 2 mg/mL)): efficacious

Reference: patent publication US12295949B2, “Treatment of the gastrointestinal tract with dimeric naphthalimide compounds” (Alumend, LLC, priority 2022, dated 2025)
